Among the data in PubChem BioAssay AID2305 (GlaxoSmithKline (GSK), 2010) are IC50 values, retold here.

Values joined by “and” are separate entries in the source; they are usually repeats but may differ in a detail not shown here. Identical values can stand only once.

This test concerns P. falciparum 3D7 growth, pLDH absorbance. Briefly: P. falciparum 3D7 growth inhibition, dose response, strain 3D7 (AID 2305).

What is called IC50 is the concentration that gives 50% inhibition. `Cc1cccc2[nH]c(-c3ccc(-c4cccc(CN5CCCC(N)C5)c4)s3)nc12` (stereo unspecified) came in with an IC50 of 540 nM.

Consider `NC1=NC2(CCCCC2)N(OCCCCCCCCNc2nc(N)nc(N)n2)C(N)=N1`, for which the IC50 is 60 nM.

`Cc1cc2[nH]c(-c3ccc(C(=O)NCCCN4CCN(c5cccc(Cl)c5)CC4)cc3)nc2cc1Cl` showed an IC50 of 770 nM.

As to `O=C(NC(Nc1ccc([N+](=O)[O-])cc1)C(Cl)(Cl)Cl)c1ccc(Cl)cc1` (stereo unspecified), the IC50 came to 780 nM. This IC50 and that of the compound before are within 1.5-fold of each other.

The compound `CNC(=O)C1Cc2c([nH]c3ccc(Cl)cc23)C2(CCN(CCc3ccccc3)CC2)N1` (stereo unspecified) gave an IC50 of 890 nM.

`NC(N)=NCC=C(c1ccccc1)c1ccccc1` gave an IC50 of 990 nM.

In turn, `Cc1[nH]c(C)c(-c2ccc(-c3ccc(Cl)cc3)nc2)c(=O)c1Br` gave an IC50 of 110 nM.

The compound `O=C(Nc1ccc(Cn2nc(Cl)c(N3CCCNCC3)cc2=O)cc1)c1ccc(-c2ccccc2)cc1` had an IC50 of 710 nM.

`O=C(Nc1cccc(-c2cccc(-c3nc4ccccc4[nH]3)c2)c1)c1csnn1` had an IC50 of 920 nM.

The compound `O=C(Nc1nc2cc(S(=O)(=O)NCCc3ccc(F)cc3)ccc2n1CCCn1ccnc1)c1ccc(Cl)cc1` came in with an IC50 of 1110 nM.

In turn, `CC(C)(C)c1ccc(Cn2nc(C(=O)N3CCN(C(=O)C4CCCO4)CC3)c3ccccc32)cc1` (stereo unspecified) returned an IC50 of 1320 nM.

`COc1cc2nc(NCc3cccc(CNC(=O)c4ccc(-c5ccc(C(C)=O)cc5)cc4)c3)nc(N)c2cc1OC` registered an IC50 of 120 nM.

In turn, `CCC(C)(C)c1ccc(OCC(O)CN2CCCCC2)c(C(C)(C)CC)c1` (stereo unspecified) displayed an IC50 of 1300 nM. Compared with the last compound, the IC50 is about 11-fold higher.

Consider `CCCCCCCCc1c(C)[nH]c(C)c(Cl)c1=O`, for which the IC50 came to 230 nM.

As for `CN1CCCN(Cc2cccc(-c3cccc(NC(=O)c4ccc(C#N)cc4)c3)c2)CC1`, the IC50 came out at 1140 nM.

Consider `O=C(Nc1ccc(OC2CCN(Cc3ccc(F)cc3)C2)c(Cl)c1)c1ccco1` (stereo unspecified), for which the IC50 was 190 nM. This IC50 lies about 6-fold lower than the previous one.

In turn, `O=C(Nc1cccc(-c2nn3ncccc3c2-c2ccnc(Nc3cccnc3)n2)c1)c1c(F)cccc1F` yielded a half-inhibitory concentration (IC50) of 530 nM.

As to `CCCCCCCC/C=C\CCCCCCCC(=O)NCc1ccc(O)c(OC)c1`, the 50% inhibitory concentration (IC50) is 400 nM.

Regarding `CCN(CC)CCN(Cc1ccc(-c2ccc(C(F)(F)F)cc2)cc1)C(=O)Cn1c(CCc2cccc(F)c2F)nc(=O)c2cccnc21`, the IC50 came to 730 nM.

For `Cc1ccc(S(=O)(=O)N(C)c2ccccc2C(=O)Nc2ccccc2Oc2ccccc2)cc1`, the IC50 is 920 nM.

The compound `O=C(N[C@@H](Cc1ccccc1)CN1CCC(Oc2ccc(F)cc2)CC1)c1ccc(OCCCN2CCCCC2)cc1` yielded an IC50 of 890 nM.

For `N#Cc1ccc(N(CCOc2ccc(Cl)c(F)c2)Cc2ccccc2C(F)(F)F)cc1C(F)(F)F`, the IC50 worked out at 680 nM.

The compound `COc1cc2ncnc(Nc3ccc(OCc4ccccc4Br)c(Cl)c3)c2cc1OC` showed an IC50 of 1280 nM.

The compound `NC(N)=Nc1ccc(OCCCCCOc2ccc(N=C(N)N)cc2Br)c(Br)c1` returned an IC50 of 260 nM.

Take `CCc1ccc(CN2CCC(CNC(=O)c3cc(-c4ccccc4Cl)cs3)C2)cc1` (stereo unspecified): the IC50 was 1430 nM.

`O=C(N[C@@H](CC1CCCCC1)C(=O)NC1CCCCC1)c1ccc(O)c(-c2cccc(C(F)(F)F)c2)c1` had an IC50 of 750 nM. Against the preceding compound, the IC50 is about 1.9-fold lower.

Take `c1cc(-c2ccc(CN3CCN(c4ccncc4)CC3)cc2)cc(-c2nc3ccccc3[nH]2)c1`: the IC50 was determined as 140 nM.

In turn, `O=C(Nc1ccc(S(=O)(=O)N2CCCCCC2)cc1)c1cc(-c2ccccc2O)n[nH]1` displayed an IC50 of 720 nM.

With `COc1ccccc1CCNc1nc(C)cc(NCCC(=O)Nc2ccccc2)n1`, the IC50 was determined as 810 nM.

`COc1cc2nc(N3CCN(c4cc(C)ccc4C)CC3)nc(N)c2cc1OC` displayed an IC50 of 850 nM.

The compound `O=C(NC1CC1)c1cnc(N2CCC(Cc3ccccc3)CC2)c(Cl)c1` came in with an IC50 of 670 nM.

`CCCC(=O)NC(c1cccs1)c1cc(Cl)c2cccnc2c1O` (stereo unspecified) returned an IC50 of 850 nM. The IC50 values of the last two compounds are within 1.5-fold of each other.

As to `COc1ccc2nccc([C@@H](O)CN3CCC(NCc4cn5cc(F)ccc5n4)CC3)c2c1`, the IC50 was determined as 780 nM.

In turn, `CCN(CC)CCCN(C(=O)Nc1c(Cl)cncc1Cl)c1nc(-c2ccc(F)cc2)cs1` yielded an IC50 of 240 nM.

Consider `CN1CCN(CC(=O)Nc2cccc(-c3cccc(-c4nc5ccc(C(F)(F)F)cc5[nH]4)c3)c2)CC1`, for which the IC50 amounted to 370 nM.

Regarding `O=C(Nc1cccc(-c2csc(-c3nc4ccccc4[nH]3)c2)c1)c1ccoc1`, the IC50 came to 210 nM.

Consider `FC(F)(F)c1ccc(NC(=S)NC2CCC(CN3CCC(c4c[nH]c5ccccc45)CC3)CC2)cc1` (stereo unspecified), for which the IC50 is 730 nM and 390 nM.

The compound `Cc1ccc(-c2nc(Nc3ccncc3)c3ccccc3n2)s1` had an IC50 of 830 nM.

The compound `Cc1cc(NC(=O)c2cccs2)ccc1OC1CCN(Cc2ccc(C#N)cc2)CC1` had an IC50 of 720 nM. The IC50 values of the last two compounds are within 1.5-fold of each other.

Compound `CCC(=O)Nc1cc(=O)[nH]c2nc(-c3ccc(Cl)cc3)nn12` had an IC50 of 570 nM.

`COc1cccc2cc(C(=O)N[C@@H](CC(C)C)C(=O)N[C@H](/C=N/NC(=O)OC(C)(C)C)Cc3ccccc3)oc12` showed an IC50 of 300 nM.

Take `Cc1cc(O)c(-c2cc(C(=O)Nc3cccnc3)[nH]n2)cc1C`: the IC50 came to 770 nM.

With `CC(C)(O)CC(C)(C)c1cc(Cl)ccc1O`, the IC50 amounted to 450 nM. This IC50 is about 1.7-fold lower than that of the compound before.

Consider `CC(C)(C)c1ccc(CNC(=O)COc2ccc(-c3nnc(-c4cccc([N+](=O)[O-])c4)o3)cc2[N+](=O)[O-])cc1`, for which the IC50 worked out at 930 nM.

`FC(F)(F)c1ccc2nc(-c3cccc(-c4cccc(CNCCc5ccncc5)c4)c3)[nH]c2c1` registered an IC50 of 140 nM.

`Clc1cccc(CNc2nc(NCCc3cnc[nH]3)nc(NC3CCCCC3)n2)c1` showed an IC50 of 790 nM.

With `O=C(Nc1ccc(Cl)c(Cl)c1)N1CCC(CNCc2cccc([N+](=O)[O-])c2)CC1`, the IC50 was found to be 980 nM.

Consider `O=C(COc1ccccc1)NC1CCN(c2ccnc3cc(Cl)ccc23)C1` (stereo unspecified), for which the IC50 is 700 nM.

Compound `O=C(Nc1nc2cc(S(=O)(=O)NCCCN3CCOCC3)ccc2n1CCCn1ccnc1)c1ccc(Cl)cc1` came in with an IC50 of 930 nM.

As for `CC(C)[C@H]1CC[C@H](C)C[C@@H]1OC(=O)N[C@@H](Cc1ccc(O)cc1)C(=O)NC1CCN(Cc2ccc(OCCCN(C)C)cc2)C1` (stereo partly specified), the IC50 was determined as 760 nM.

In turn, `CC(Cc1ccc(OCc2ccc(CCN(C)C)cc2)cc1)NCCc1cccc(Cl)c1` (stereo unspecified) showed an IC50 of 770 nM.

Compound `O=C1C(c2ccccc2)=C(Nc2ccc(OC(F)(F)F)cc2)c2ccccc21` showed an IC50 of 110 nM.

With `O=C(C=Cc1ccc(Cl)c(Cl)c1)NCCCCCN1CCC(CCNC(=O)c2cccc3ccccc23)CC1`, the IC50 came out at 1590 nM. This IC50 lies about 14-fold higher than the previous one.

The compound `CCCCOC(=O)c1ccc(Nc2cc(C)nc3ccc(OC)cc23)cc1` gave an IC50 of 640 nM.

Regarding `O=C(Cc1cnc[nH]1)Nc1cccc(-c2cccc(-c3nc4ccc(F)cc4[nH]3)c2)c1`, the half-inhibitory concentration (IC50) was found to be 780 nM.

The compound `COc1ccc(C(c2ccc(N(C)C)cc2)c2ccc(N(C)C)cc2)cc1` gave an IC50 of 60 nM.

In the case of `CC(C)c1ncc(-c2ccncc2)c(C2CCC(CNC(=O)c3cccnc3)CC2)n1` (stereo unspecified), the IC50 was determined as 780 nM.

Regarding `CC1=CC(=O)[C@@H](O)[C@]2(C)[C@H]3[C@@]4(O)OC[C@@]35[C@@H](C[C@@H]12)OC(=O)C[C@H]5[C@@H](C)[C@H]4O`, the IC50 is 350 nM.

Take `Cc1cccc2[nH]c(-c3cccc(-c4ccc(NC(=O)c5ccncc5)cc4)c3)nc12`: the IC50 stood at 500 nM.

In the case of `Cc1ccc(N2CCN(C(=O)c3cccc(-c4cncc5nc(-c6ccco6)n(C)c45)c3)CC2)nc1`, the IC50 amounted to 600 nM.

For the compound `CNc1nc(NN=Cc2cc3c(cc2[N+](=O)[O-])OCO3)nc(Nc2cccc(C(F)(F)F)c2)n1`, the IC50 was 770 nM.

For the compound `NC1=NC(c2ccccc2)(c2cccc(O)c2)C(=O)N1CCCc1ccccc1` (stereo unspecified), the IC50 was 1230 nM and 840 nM.

For `COc1ccc(N2CCc3c(-c4cccc5cnccc45)cc(C)nc32)c(C)c1`, the IC50 is 660 nM.

Turning to `Nc1nc(N)c2cc3ccc(OCc4ccccc4)cc3nc2n1`, the IC50 came out at 320 nM.

As for `COc1cccc(C(=O)Nc2ccc(Nc3nc(C)cc(N(C)C)n3)cc2)c1`, the IC50 came out at 940 nM.

The compound `COc1cccc(-c2csc(C(=O)NC3CCCCN(Cc4ccc(C(C)(C)C)cc4)C3)c2)c1` (stereo unspecified) came in with an IC50 of 890 nM.

For `Fc1ccc(C(OCC2CCCN(Cc3cccc4cccnc34)C2)c2ccc(F)cc2)cc1` (stereo unspecified), the IC50 stood at 700 nM.

With `CCC(C)C(COC(=O)c1cc(OC)c(OC)c(OC)c1)N(C)CCN(C)C(COC(=O)c1cc(OC)c(OC)c(OC)c1)C(C)CC` (stereo unspecified), the IC50 is 950 nM.

For the compound `N#Cc1ccc2c(c1)CCN(CCC1CCC(NC(=O)/C=C/c3cccc4cc[nH]c34)CC1)CC2` (stereo unspecified), the IC50 is 1090 nM.

Compound `Cc1cc(N(C)CCCN(C)C)nc(Nc2ccc(Cl)cc2)n1` gave an IC50 of 1020 nM. The IC50 values of the last two compounds are within 1.5-fold of each other.

With `COc1ccc2nc(C)cc(Nc3ccc(Oc4ccc(Cl)cc4)c(Cl)c3)c2c1`, the IC50 is 190 nM.

On to `COc1cc(NC(=O)c2ccc(-c3ccc(C(C)=O)cc3)s2)ccc1OCCN1CCCC1`, for which the IC50 was 150 nM.

With `N#Cc1cc(C(=O)c2cc(Br)ccc2O)cn(-c2cc(Cl)cc(Cl)c2)c1=O`, the IC50 was 880 nM.

The compound `O=C(Nc1ccc(C(F)(F)F)cc1)NC1CCN(c2ccnc3ccccc23)CC1` displayed an IC50 of 180 nM. This IC50 is about 4.9-fold lower than that of the compound before.

Regarding `O=C(NC=Nc1cc([N+](=O)[O-])c(-c2cccnc2)n1-c1ccc(O)cc1)c1ccccc1`, the IC50 was 300 nM. Compared with the last compound, the IC50 is about 1.7-fold higher.

Regarding `O=C(/C=C/c1ccc(Cl)c(Cl)c1)NCC(CCCN1CCC(c2c[nH]c3ccccc23)CC1)c1ccccc1` (stereo unspecified), the IC50 stood at 810 nM.

For the compound `CCn1cc(-c2cc(C(=O)Nc3ccc(OC)cc3C)c3ccccc3n2)c(C)n1`, the IC50 came out at 980 nM.

In turn, `COc1cccc(-c2cc(-c3ccc(NC(=O)c4ccccc4)cc3)c3c(N)ncnc3n2)c1` yielded an IC50 of 590 nM.

Regarding `N=C(N)CCN(Cc1ccc(Cl)cc1)c1ccc(Cl)cc1`, the IC50 was 1060 nM.

`Clc1ccc(-c2cnc3ccc(NCc4ccncc4)nn23)cc1` displayed an IC50 of 890 nM.

Compound `O=C(N[C@H]1CCN(Cc2ccc(OCCN3CCNCC3)c3ccccc23)C1)c1ccc(Cl)c(Cl)c1` yielded an IC50 of 750 nM.

Regarding `CCCc1cc(NCc2ccncc2)nc(Nc2ccc(F)cc2)n1`, the IC50 is 1120 nM.

Turning to `CCn1ncc2c(NC3CCOCC3)c(CNC(=O)c3ccnn3C)c(C)nc21`, the IC50 was found to be 530 nM.

With `NS(=O)(=O)Cc1cccc(-c2ccnc3ccc(-c4cccc(S(N)(=O)=O)c4)cc23)c1`, the IC50 turned out to be 1560 nM.

`COc1ccc(-n2ccnc2SCC(=O)Nc2cc(C)ccc2C)c(OC)c1`: the IC50 amounted to 200 nM.

As to `O=C1OC2(CN1CC1CCN(Cc3ccc(O)cc3Cl)C1)c1ccccc1-c1ccccc12` (stereo unspecified), the IC50 was 1170 nM. Compared with the last compound, the IC50 is about 5.8-fold higher.
